Experimental data reported in patent US12459899B2, “Isoquinolinone derivatives, method for preparing the same, and pharmaceutical composition for preventing or treating poly(ADP-ribose) polymerase-1-related diseases, comprising the same as active ingredient” (DIGMBIO. INC., priority 2019, dated 2025).

Target: PARP-1 (poly[ADP-ribose] polymerase 1) enzyme (Homo sapiens (Human), UniProt P09874)
Assay: PARP-1 (poly[ADP-ribose] polymerase 1) enzyme inhibitory ability, Trevigen assay kit
Format: biochemical
Details: for inhibition at 0.001 µM: 1 nM compound, read-out: PAR P-1 Inhibitory ability at 1 nM; for IC50: PARP-1 enzyme activity
How it was run: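 After the 1 hour PARP reaction, wells were washed with PBS containing 0.1% triton X-100 and then PBS. Strep-HRP (50 μL) was bound for 1 hour, wells washed again, and 50 μL of TACS-sapphire substrate developed 15 minutes in the dark. Reactions were stopped with 50 μL of 5% phosphoric acid and absorbance read at 450 nm on a Victor3 reader.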

Chain of PARP-1 (poly[ADP-ribose] polymerase 1) enzyme (P09874 whole entry): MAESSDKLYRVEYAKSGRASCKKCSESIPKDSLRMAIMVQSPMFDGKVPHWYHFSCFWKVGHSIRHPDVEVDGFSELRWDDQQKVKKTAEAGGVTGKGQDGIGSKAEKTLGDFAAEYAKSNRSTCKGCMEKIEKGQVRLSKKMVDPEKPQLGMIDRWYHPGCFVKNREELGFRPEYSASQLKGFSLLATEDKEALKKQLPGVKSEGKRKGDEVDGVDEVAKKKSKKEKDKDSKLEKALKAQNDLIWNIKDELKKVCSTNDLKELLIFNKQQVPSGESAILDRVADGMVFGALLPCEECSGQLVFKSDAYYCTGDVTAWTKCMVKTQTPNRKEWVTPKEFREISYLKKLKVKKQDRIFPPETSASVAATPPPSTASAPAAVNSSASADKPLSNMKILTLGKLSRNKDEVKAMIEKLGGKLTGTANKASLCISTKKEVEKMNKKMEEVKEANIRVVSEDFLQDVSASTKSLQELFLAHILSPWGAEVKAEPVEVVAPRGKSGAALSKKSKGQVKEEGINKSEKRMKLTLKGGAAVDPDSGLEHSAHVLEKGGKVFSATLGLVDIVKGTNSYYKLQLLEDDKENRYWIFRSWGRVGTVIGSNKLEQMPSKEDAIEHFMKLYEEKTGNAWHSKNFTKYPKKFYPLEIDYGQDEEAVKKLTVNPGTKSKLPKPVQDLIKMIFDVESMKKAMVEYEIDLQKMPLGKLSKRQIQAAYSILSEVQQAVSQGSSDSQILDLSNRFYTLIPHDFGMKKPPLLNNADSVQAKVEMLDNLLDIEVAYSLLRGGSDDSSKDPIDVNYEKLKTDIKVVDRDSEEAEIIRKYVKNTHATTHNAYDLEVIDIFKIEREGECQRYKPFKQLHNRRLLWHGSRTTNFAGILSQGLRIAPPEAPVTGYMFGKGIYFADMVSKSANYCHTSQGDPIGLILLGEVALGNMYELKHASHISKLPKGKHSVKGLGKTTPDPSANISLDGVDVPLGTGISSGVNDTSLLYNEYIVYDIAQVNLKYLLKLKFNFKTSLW

Compound	inhibition at 0.001 µM [%]	IC50 [nM]
Cc1cc(F)cc2c(=O)[nH]c(CCC(=O)N3CC=C(c4ccc(F)cc4C#N)CC3)cc12 [Example 161, 5-fluoro-2-(1-(3-(7-fluoro-5-methyl-1-oxo-1,2-dihydroisoquinolin-3-yl)propanoyl)-1,2,3,6-tetrahydropyridin-4-yl)benzonitrile]	< 50	–
Cc1ccc(F)c2c(=O)[nH]c(CCC(=O)N3CCN(c4ccc(F)cc4C#N)CC3)cc12 [Example 136, 5-fluoro-2-(4-(3-(8-fluoro-5-methyl-1-oxo-1,2-dihydroisoquinolin-3-yl)propanoyl)piperazin-1-yl)benzonitrile]	< 50	–
Cc1ccc(F)c2c(=O)[nH]c(CCCN3CCN(C(=O)c4ccc(F)cc4)CC3)cc12 [Example 67, 8-fluoro-3-(3-(4-(4-fluorobenzoyl)piperazin-1-yl)propyl)-5-methylisoquinolin-1(2H)-one]	< 50	–
COC(=O)c1cccc(N2CCN(CCCc3cc4ccc(F)cc4c(=O)[nH]3)CC2)c1 [Example 18, methyl 3-(4-(3-(7-fluoro-1-oxo-1,2-dihydroisoquinolin-3-yl)propyl)piperazin-1-yl)benzoate]	< 50	–
O=c1[nH]c(CCCN2CC=C(c3ccc(Cl)cc3)CC2)cc2ccc(F)cc12 [Example 49, 3-(3-(4-(4-chlorophenyl)-3,6-dihydropyridin-1(2H)-yl)propyl)-7-fluoroisoquinolin-1(2H)-one]	< 50	3.58
O=C(CCc1cc2cccc(F)c2c(=O)[nH]1)N1CCN(c2ccccc2F)CC1 [Example 75, 8-fluoro-3-(3-(4-(2-fluorophenyl)piperazin-1-yl)-3-oxopropyl)isoquinolin-1(2H)-one]	< 50	–
O=c1[nH]c(CCCN2CC=C(c3ccc(F)cc3)CC2)cc2cccc(F)c12 [Example 42, 8-fluoro-3-(3-(4-(4-fluorophenyl)-3,6-dihydropyridin-1(2H)-yl)propyl)isoquinolin-1(2H)-one]	50 to 80	–
Cc1ccc(F)c2c(=O)[nH]c(CCCN3CC=C(c4ccc(C#N)cn4)CC3)cc12 [Example 57, 1′-(3-(8-fluoro-5-methyl-1-oxo-1,2-dihydroisoquinolin-3-yl)propyl)-1′,2′,3′,6′-tetrahydro-[2,4′-bipyridine]-5-carbonitrile]	50 to 80	0.91
N#Cc1ccc(C2=CCN(CCCc3cc4ncccc4c(=O)[nH]3)CC2)cn1 [Example 234, 1′-(3-(5-oxo-5,6-dihydro-1,6-naphthyridin-7-yl)propyl)-1′,2′,3′,6′-tetrahydro-[3,4′-bipyridine]-6-carbonitrile]	< 50	–
O=c1[nH]c(CCCN2CC=C(c3ccc(C(F)(F)F)cc3)CC2)cc2cccc(F)c12 [Example 45, 8-fluoro-3-(3-(4-(4-(trifluoromethyl)phenyl)-3,6-dihydropyridin-1(2H)-yl)propyl)isoquinolin-1(2H)-one]	50 to 80	–
Cc1ccc(F)c2c(=O)[nH]c(CCC(=O)N3CC=C(c4ccccc4F)CC3)cc12 [Example 138, 8-fluoro-3-(3-(4-(2-fluorophenyl)-3,6-dihydropyridin-1(2H)-yl)-3-oxopropyl)-5-methylisoquinolin-1(2H)-one]	< 50	–
N#Cc1ccc(N2CC3CCC(C2)N3CCCc2cc3cccc(F)c3c(=O)[nH]2)nc1 [Example 203, 6-(8-(3-(8-fluoro-1-oxo-1,2-dihydroisoquinolin-3-yl)propyl)3,8-diazabicyclo[3.2.1]octan-3-yl)nicotinonitrile]	< 50	–
O=C(CCc1cc2cccc(F)c2c(=O)[nH]1)N1CC=C(c2ccc(F)nc2)CC1 [Example 85, 8-fluoro-3-(3-(6-fluoro-3′,6′-dihydro-[3,4′-bipyridine]-1′(2′H)-yl)-3-oxopropyl)isoquinolin-1(2H)-one]	< 50	–
O=C(CCc1cc2ccc(F)cc2c(=O)[nH]1)N1CC[C@@H](c2ccc(F)cc2)C1 [Example 117, (S)-7-fluoro-3-(3-(3-(4-fluorophenyl)pyrrolidin-1-yl)-3-oxopropyl)isoquinolin-1(2H)-one]	< 50	–
Cc1ccc(F)c2c(=O)[nH]c(CCC(=O)N3C4CCC3CN(c3ccc(F)cn3)C4)cc12 [Example 212, 8-fluoro-3-(3-(3-(5-fluoropyridin-2-yl)-3,8-diazabicyclo[3.2.1]octan-8-yl)-3-oxopropyl)-5-methylisoquinolin-1(2H)-one]	< 50	–
N#Cc1ccc(C2=CCN(CCCc3cc4ncccc4c(=O)[nH]3)CC2)cc1 [Example 239, 4-(1-(3-(5-oxo-5,6-dihydro-1,6-naphthyridin-7-yl)propyl)-1,2,3,6-tetrahydropyridin-4-yl)benzonitrile]	50 to 80	–
N#Cc1ccc(N2CCN(CCCc3cc4ccc(F)cc4c(=O)[nH]3)CC2)cc1 [Example 8, 4-(4-(3-(7-fluoro-1-oxo-1,2-dihydroisoquinolin-3-yl)propyl)piperazin-1-yl)benzonitrile]	50 to 80	0.72
Cc1cc(F)cc2c(=O)[nH]c(CCCN3CCN(c4ccc(C#N)c(F)c4)CC3)cc12 [Example 38, 2-fluoro-4-(4-(3-(7-fluoro-5-methyl-1-oxo-1,2-dihydroisoquinolin-3-yl)propyl)piperazin-1-yl)benzonitrile]	< 50	–
Cc1ccc(F)c2c(=O)[nH]c(CCCN3CC=C(c4ccc(F)cc4)CC3)cc12 [Example 53, 8-fluoro-3-(3-(4-(4-fluorophenyl)-3,6-dihydropyridin-1(2H)-yl)propyl)-5-methylisoquinolin-1(2H)-one]	< 50	–
Cc1ccc(F)c2c(=O)[nH]c(CCC(=O)N3CCN(c4ccc(C#N)nc4)CC3)cc12 [Example 124, 5-(4-(3-(8-fluoro-5-methyl-1-oxo-1,2-dihydroisoquinolin-3-yl)propanoyl)piperazin-1-yl)picolinonitrile]	< 50	–
Cc1cc(F)cc2c(=O)[nH]c(CCCN3CCN(c4ccc(C(F)(F)F)cc4)CC3)cc12 [Example 39, 7-fluoro-5-methyl-3-(3-(4-(4-(trifluoromethyl)phenyl)piperazin-1-yl)propyl)isoquinolin-1(2H)-one]	< 50	–
O=C(CCc1cc2ccc(F)cc2c(=O)[nH]1)N1CCN(c2ccc(Cl)cc2)CC1 [Example 105, 3-(3-(4-(4-chlorophenyl)piperazin-1-yl)-3-oxopropyl)-7-fluoroisoquinolin-1(2H)-one]	< 50	–

More lines, main results first:

inhibition at 0.001 µM [%]	Compound	IC50 [nM]
< 50	Cc1cc(F)cc2c(=O)[nH]c(CCC(=O)N3CCN(C(=O)C4CCC4)CC3)cc12 [Example 181, 3-(3-(4-(cyclobutanecarbonyl)piperazin-1-yl)-3-oxopropyl)-7-fluoro-5-methylisoquinolin-1(2H)-one]	–
< 50	Cc1cc(F)cc2c(=O)[nH]c(CCC(=O)N3CCN(C(=O)C4CCCC4)CC3)cc12 [Example 177, 3-(3-(4-(cyclopentanecarbonyl)piperazin-1-yl)-3-oxopropyl)-7-fluoro-5-methylisoquinolin-1(2H)-one]	–
< 50	Cc1cc(F)cc2c(=O)[nH]c(CCC(=O)N3CC=C(c4cc(F)cc(C#N)c4)CC3)cc12 [Example 163, 3-fluoro-5-(1-(3-(7-fluoro-5-methyl-1-oxo-1,2-dihydroisoquinolin-3-yl)propanoyl)-1,2,3,6-tetrahydropyridin-4-yl)benzonitrile]	–
< 50	O=C(CCc1cc2ncccc2c(=O)[nH]1)N1CC=C(c2ccc(F)cc2)CC1 [Example 244, 7-(3-(4-(4-fluorophenyl)-3,6-dihydropyridin-1(2H)-yl)-3-oxopropyl)-1,6-naphthyridin-5(6H)-one]	–
< 50	O=C(CCc1cc2ccc(F)cc2c(=O)[nH]1)N1CCN(C(=O)C2CC2)CC1 [Example 184, 3-(3-(4-(cyclopropanecarbonyl)piperazin-1-yl)-3-oxopropyl)-7-fluoroisoquinolin-1(2H)-one]	–
< 50	O=c1[nH]c(CCCN2CCN(c3cccc(F)c3)CC2)cc2ncccc12 [Example 224, 7-(3-(4-(3-fluorophenyl)piperazin-1-yl)propyl)-1,6-naphthyridin-5(6H)-one]	–
< 50	N#Cc1ccc(OC2CCN(C(=O)CCc3cc4cccc(F)c4c(=O)[nH]3)CC2)cc1 [Example 255, 4-((1-(3-(8-fluoro-1-oxo-1,2-dihydroisoquinolin-3-yl)propanoyl)piperidin-4-yl)oxy)benzonitrile]	–
< 50	CC(C)C(=O)N1CCN(C(=O)CCc2cc3cccc(F)c3c(=O)[nH]2)CC1 [Example 186, 8-fluoro-3-(3-(4-isobutyrylpiperazin-1-yl)-3-oxopropyl)isoquinolin-1(2H)-one]	–
50 to 80	N#Cc1ccc(N2CCN(CCCc3cc4ncccc4c(=O)[nH]3)CC2)cc1 [Example 221, 4-(4-(3-(5-oxo-5,6-dihydro-1,6-naphthyridin-7-yl)propyl)piperazin-1-yl)benzonitrile]	–
< 50	N#Cc1ccc(N2CCN(C(=O)CCc3cc4ncccc4c(=O)[nH]3)CC2)cn1 [Example 243, 5-(4-(3-(5-oxo-5,6-dihydro-1,6-naphthyridin-7-yl)propanoyl)piperazin-1-yl)picolinonitrile]	–
< 50	COC(=O)c1ccc(NC2CCN(C(=O)CCc3cc4c(C)ccc(F)c4c(=O)[nH]3)CC2)cc1 [Example 268, methyl 4-((1-(3-(8-fluoro-5-methyl-1-oxo-1,2-dihydroisoquinolin-3-yl)propanoyl)piperidin-4-yl)amino)benzoate]	8.59
< 50	Cc1cc(F)cc2c(=O)[nH]c(CCC(=O)N3CCC(Nc4ccc(C(F)(F)F)cc4)CC3)cc12 [Example 265, 7-fluoro-5-methyl-3-(3-oxo-3-(4-((4-(trifluoromethyl)phenyl)amino)piperidin-1-yl)propyl)isoquinolin-1(2H)-one]	–
